Reference: PubChem BioAssay AID651569 (Sanford-Burnham Center for Chemical Genomics, 2012)
Active and inactive are the calls of the source. How the calls were made is not given here.

These compounds were tested on luminescent cytotoxicity (cell viability) counter-screen (assay: cytotoxicity of Gli-SUFU antagonist hits, dose response, cytotoxicity control for Gli-SUFU antagonist project, cell-based, luminescence, uHTS hits (AID 651569);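 further: compound exposure lasted overnight before the viability readout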).

Row | SMILES | IC50
1 | Cc1cc(C)nc(/N=C(\N)Nc2ccccc2-c2ccccc2)n1 | 18.4 µM
2 | Cc1nn(C)c(C(=O)NCc2ccc(Cl)cc2)c1Cl | > 20 µM (inactive)
3 | CN1/C(=C\C(=O)COC(=O)CNC(=O)c2ccc3ccccc3c2)C(C)(C)c2ccccc21 | > 20 µM (inactive)
4 | CCCCNc1c(-c2ccc(OC)c(Sc3ccc(OC)cc3)c2)nc2ccccn12 | 12.9 µM
5 | COc1ccc(NS(=O)(=O)c2ccc(NC(C)=O)cc2)cc1OC | > 20 µM (inactive)
6 | Cc1sc2ncnc(NCc3cccs3)c2c1C | > 20 µM (inactive)
7 | Cc1sc2ncnc(NCC3COc4ccccc4O3)c2c1C (stereo unspecified) | > 20 µM (inactive)
8 | Cc1ccc(C)c(-c2csc(NC(=O)C3=COCCO3)n2)c1 | > 20 µM (inactive)
9 | Cc1cc(NC(=O)CSc2nc3c([nH]c4ccccc43)c(=O)n2-c2ccccc2F)no1 | > 20 µM (inactive)
10 | C[N+]1=C(/C=C/Nc2ccccc2)C(C)(C)c2ccccc21 | > 20 µM (inactive)
11 | CCCN1CCC(=O)N([C@H](CSc2ccc(OC)cc2)Cc2ccccc2)CC1 | > 20 µM (inactive)
12 | CC(=O)c1c(C)[nH]c(C(=O)OCC(=O)Nc2cccc(S(=O)(=O)N3CCCC3)c2)c1C | > 20 µM (inactive)
13 | CC(Sc1nc2ccccc2c(=O)n1C)C(=O)N(C)C1CCCCC1 (stereo unspecified) | > 20 µM (inactive)
14 | CCNc1nc(CN2CCCCC2)nc2scc(-c3ccccc3)c12 | 15.6 µM
15 | Cc1csc2ncnc(NCCc3ccccn3)c12 | > 20 µM (inactive)
16 | CC(=O)c1ccc(N2CCN(c3ccc(C(F)(F)F)cn3)CC2)cc1 | > 20 µM (inactive)
17 | COCCOc1nc2c(c(=O)n(C)c(=O)n2C)n1Cc1cccc(OC)c1 | > 20 µM (inactive)
18 | Cc1ccc(-c2c[n+](Cc3ccc(Cl)c(Cl)c3)c3n2CCC3)cc1 | 13.7 µM
19 | O=C(c1cccc(S(=O)(=O)N2CCN(c3ccccc3)CC2)c1)N1CCCC(C(F)(F)F)C1 (stereo unspecified) | > 20 µM (inactive)
20 | Cc1ccc2c(c1)S/C(=C/c1ccc[n+](C)c1)N2CCO | > 20 µM (inactive)
21 | CC(C)(C)c1ccc(C(=O)NC(=S)Nc2ccc(N3CCOCC3)cc2)cc1 | > 20 µM (inactive)
22 | c1ccc(C[n+]2cccc(-c3ccccc3)c2)cc1 | > 20 µM (inactive)
23 | CC(=O)c1cccc(NS(=O)(=O)c2ccc(-c3cnc(C4CC4)o3)cc2)c1 | 6.78 µM
24 | COCCNc1nc2c(c(=O)n(C)c(=O)n2C)n1Cc1cccc(C)c1 | > 20 µM (inactive)

Row | SMILES | IC50
25 | COc1ccc(NS(=O)(=O)c2ccc(N3CCN(CCO)CC3)c([N+](=O)[O-])c2)cc1 | > 20 µM (inactive)
26 | CCCOc1ccc(Br)cc1CSC(=N)N | 8.78 µM
27 | O=C(N[C@H]1C/C=C\C[C@@H](CC(=O)N(CCO)Cc2ccccc2)C(=O)N[C@H](Cc2c[nH]c3ccccc23)COC1=O)OCC1c2ccccc2-c2ccccc21 | > 20 µM (inactive)
28 | CCCN(CCC)CCNC(=O)c1cc2c(=O)n(C)c3ccccc3c2n1C | > 20 µM (inactive)
29 | COCCn1c(CN2CCC(Cc3ccccc3)CC2)nc2c1c(=O)n(C)c(=O)n2C | > 20 µM (inactive)
30 | CC(=O)Nc1cccc(OCC(=O)/C=C2\N(C)c3ccccc3C2(C)C)c1 | > 20 µM (inactive)
31 | Cc1cc(-c2ccccc2)cc(-c2ccccc2)[n+]1C | > 20 µM (inactive)
32 | NC(=O)c1c(-c2ccc(Cl)cc2Cl)csc1NC(=O)Cc1ccccc1 | 16.8 µM
33 | CCC(C)CCN1C(N(C)C)=NC[C@@H]1CC(C)C (stereo partly specified) | > 20 µM (inactive)
34 | COc1ccc(-c2c(C#N)c(N)nc3c2CCc2ccccc2-3)cc1OC | 8.1 µM
35 | COc1cc(NS(=O)(=O)c2ccc(C)cc2C)cc(OC)c1OC | 16 µM
36 | COc1ccccc1N1CCN(c2ncc(C(=O)N3CCN(c4cccc(Cl)c4)CC3)c3ccccc23)CC1 | > 20 µM (inactive)
37 | O=C(/C=C/c1ccco1)Nc1ccc(-c2nc3ccccc3[nH]2)cc1 | > 20 µM (inactive)
38 | CCOc1ccc(-c2cc(C)[n+](CCO)c(-c3ccc(OCC)cc3)c2)cc1 | > 20 µM (inactive)
39 | CC1CCC(NC(=O)c2cccc(S(=O)(=O)N3CCN(c4ccccc4)CC3)c2)CC1 (stereo unspecified) | > 20 µM (inactive)
40 | S=C(Nc1ccccc1)N1CCC(Cc2ccccc2)CC1 | > 20 µM (inactive)
41 | COc1nnc(-c2ccc(N3CCCCC3)c(N)c2)c2ccccc12 | > 20 µM (inactive)
42 | C=CCOC(=O)c1[nH]c2c(c1C)C(=O)CC(c1cc(OC)c(OC)c(OC)c1)C2 (stereo unspecified) | > 20 µM (inactive)
43 | Cc1cccnc1CN1CCN(C(=O)c2cc(COc3ccc4ncccc4c3)on2)CC1 | > 20 µM (inactive)
44 | c1ccc(-c2c[n+]3c(n2-c2ccccc2)CCC3)cc1 | > 20 µM (inactive)
45 | O=C(Cn1cnc2ccccc21)Nc1cccc(S(=O)(=O)N2CCCC2)c1 | > 20 µM (inactive)
46 | CCN1C(=O)CCN(C2CCCC2)c2nc(Nc3ccc(C(=O)NC4CCN(C)CC4)cc3OC)ncc21 | > 20 µM (inactive)
47 | COc1ccc(CN(C)Cc2nc(Cc3cccc(F)c3)no2)c2cccnc12 | > 20 µM (inactive)
48 | CCn1cc[n+](C)c1P(c1ccccc1)c1ccccc1 | > 20 µM (inactive)

Row | SMILES | IC50
49 | CCOC(=O)c1c(NC(=O)C(=O)N/N=C/c2ccccc2O)sc2c1CCCCC2 | 19 µM
50 | CC1CCN(Cc2c(C(=O)N/N=C/c3ccccc3O)nnn2-c2nonc2N)CC1 | > 20 µM (inactive)
51 | CC(C)Cc1ccc(C(C)C(=O)Nc2cccnc2)cc1 (stereo unspecified) | > 20 µM (inactive)
52 | C=C(C)CSc1nc2sc3c(c2c(=O)n1C1CCCCC1)CCN(C)C3 | > 20 µM (inactive)
53 | CCC(C)[C@H]1CN=C(N)N1CCc1cccc2ccccc12 (stereo partly specified) | > 20 µM (inactive)
54 | COc1ccc(-n2cc(-c3ccc(OC(F)F)cc3)[n+]3c2CCCCC3)cc1 | > 20 µM (inactive)
55 | Cc1cc(C)c(C(N)=O)c(SCC(=O)c2cc(C)n(-c3cc(C)on3)c2C)n1 | > 20 µM (inactive)
56 | COc1ccc(CNCC(O)COc2cccc3c2OC(C)(C)C3)cc1 (stereo unspecified) | > 20 µM (inactive)
57 | CCOC(=O)c1ccc(NC(=O)Cn2cnc3cc(C)c(C)cc32)cc1 | > 20 µM (inactive)
58 | FC(F)(F)c1ccc(N2CCN(c3cc(-c4ccccc4)nc4ncnn34)CC2)nc1 | > 20 µM (inactive)
59 | COc1ccccc1-c1c(-c2ccc(O)cc2O)n[nH]c1C(F)(F)F | > 20 µM (inactive)
60 | O=C(N[C@H]1C/C=C\C[C@@H](CC(=O)N(CCO)Cc2ccccc2)C(=O)NC[C@H](c2ccccc2)OC1=O)OCC1c2ccccc2-c2ccccc21 | > 20 µM (inactive)
61 | COc1ccc(OC)c(Cc2cnc3nc(N)nc(N)c3c2C)c1 | > 20 µM (inactive)
62 | CC(C)n1c(-c2ccco2)csc1=Nc1cccnc1 | > 20 µM (inactive)
63 | O=[N+]([O-])c1ccc(N2CCN(C(=S)NCc3ccc(Cl)cc3)CC2)cc1 | > 20 µM (inactive)
64 | O=c1c2ccccc2nc2n1C(CSCc1cccc(C(F)(F)F)c1)CS2 (stereo unspecified) | > 20 µM (inactive)
65 | Cc1ccc(O)c(NC(=O)COc2cc(C)ccc2C)c1 | > 20 µM (inactive)
66 | Clc1ccc(-c2cn(-c3ccccc3)c3[n+]2CCS3)cc1 | > 20 µM (inactive)
67 | CC(C)(C)[C@H]1COC(=O)[C@H](NC(=O)OCC2c3ccccc3-c3ccccc32)C/C=C\C[C@@H](CC(=O)N[C@@H](CO)Cc2ccccc2)C(=O)N1 | > 20 µM (inactive)
68 | c1ccc(Cn2c(-c3ccccc3)c[n+]3c2SCCC3)cc1 | > 20 µM (inactive)
69 | CCc1c(C)nc2ncnn2c1N1CCN(S(=O)(=O)c2ccc(OC)cc2)CC1 | > 20 µM (inactive)
70 | CCC(C)NS(=O)(=O)c1ccc(S(=O)(=O)N2CCCC3(CCCCC3)C2)cc1 (stereo unspecified) | > 20 µM (inactive)
71 | CCCCOc1ccc(N2C(N)=NC(N)=NC23CCCCC3)cc1 | > 20 µM (inactive)
72 | CCCc1c(CC)c(=N)c2ccccc2n1C | > 20 µM (inactive)

Row | SMILES | IC50
73 | C(#Cc1ccccc1)C[N+]1(CC#Cc2cccc3ccccc23)CCCC1 | > 20 µM (inactive)
74 | CCOc1ccc(-c2nc(CSCC(=O)NC3CC3)c(C)o2)cc1 | > 20 µM (inactive)
75 | CCCCSc1nc2sc3c(c2c(=O)n1-c1ccc(C)cc1)CCN(C)C3 | > 20 µM (inactive)
76 | C=CCNC(=S)/N=c1/ccccn1Cc1ccccc1 | > 20 µM (inactive)
77 | O=C(Cn1cc(C(=O)c2ccco2)c2ccccc21)Nc1ccccc1F | > 20 µM (inactive)
78 | CC1Sc2n(c3ccccc3[n+]2C)N=C1c1ccccc1 (stereo unspecified) | > 20 µM (inactive)
79 | Cc1cc(=O)[nH]c(SCC(=O)/C=C2\N(C)c3ccccc3C2(C)C)n1 | > 20 µM (inactive)
80 | CNS(=O)(=O)c1cccc(C(=O)OCC(=O)c2cc(C)n(CC3CCCO3)c2C)c1 (stereo unspecified) | > 20 µM (inactive)
81 | O=C(Cn1c(-c2ccccc2)c[n+]2ccsc12)c1ccc(Br)cc1 | > 20 µM (inactive)
82 | CCn1c(=O)cc(SCC(=O)N2CCN(C3CCCCC3)CC2)c2ccccc21 | > 20 µM (inactive)
83 | CCOc1ccc(NS(=O)(=O)c2cccc(C(=O)N3CCN(C/C=C/c4ccccc4)CC3)c2)cc1 | > 20 µM (inactive)
84 | COc1ccc(Cn2c(-c3ccc(Cl)cc3)c[n+]3ccccc23)cc1 | > 20 µM (inactive)
85 | CCOC(CN=c1nc(N(C)C)ss1)OCC | 18.6 µM
86 | Cc1ccc2c(c1)c(C)cc[n+]2Cc1ccccc1 | > 20 µM (inactive)
87 | FC(F)Oc1ccc(-n2cc(-c3ccccc3)[n+]3c2CCCCC3)cc1 | > 20 µM (inactive)
88 | CC(=O)c1ccc(-n2cc(-c3ccc(C(C)(C)C)cc3)[n+]3c2SCCC3)cc1 | > 20 µM (inactive)
89 | CCCCOCCCNc1ncnc2c1[nH]c1ccccc12 | > 20 µM (inactive)
90 | Cc1nn(-c2ccc(NC(=O)c3ccncc3)cc2)c(C)c1Cl | > 20 µM (inactive)
91 | CC(C)C[C@H]1CN=C(N(C)C)N1CCCCc1ccccc1 | > 20 µM (inactive)
92 | C[C@@H]1COC(=O)[C@H](NC(=O)OCC2c3ccccc3-c3ccccc32)C/C=C\C[C@@H](CC(=O)N[C@@H](CO)Cc2ccccc2)C(=O)N1 | > 20 µM (inactive)
93 | CC(=O)N1c2ccc(S(=O)(=O)N3CCC(C(=O)N4CCCCC4)CC3)cc2CC1C (stereo unspecified) | > 20 µM (inactive)
94 | CCOC(=O)CC1CCCCN1C(=O)c1cc(COc2cccc3cnccc23)on1 (stereo unspecified) | > 20 µM (inactive)
95 | c1ccc(-c2cn(-c3ccccc3)c3[n+]2CCS3)cc1 | > 20 µM (inactive)
96 | O=C(c1cc(COc2cccc3cnccc23)on1)N1CCCC(CCCO)C1 (stereo unspecified) | > 20 µM (inactive)
